Values joined by “and” are separate entries in the source; they are usually repeats but may differ in a detail not shown here. Identical values can stand only once.

This data set in a line: Henry solubility constant Hcp at 298.15 K (mol/(m3 Pa)). Conditions: reference: Lau et al. (2006).
As to `Brc1ccc(Oc2cc(Br)c(Br)cc2Br)c(Br)c1` [2,2',4,4',5-pentabromodiphenyl ether], the “Henry solubility constant Hcp” value was 0.62 and 0.33. On to `Brc1ccc(Oc2c(Br)cc(Br)cc2Br)c(Br)c1` [2,2',4,4',6-pentabromodiphenyl ether], for which the “Henry solubility constant Hcp” value was 0.33 and 0.32. In the case of `Brc1ccc(Oc2ccc(Br)cc2Br)c(Br)c1` [2,2',4,4'-tetrabromodiphenyl ether], the “Henry solubility constant Hcp” value was 0.16 and 0.17.

For the compound `Clc1ccc(-c2cc(Cl)c(Cl)cc2Cl)cc1Cl` [2,3',4,4',5-pentachlorobiphenyl], the “Henry solubility constant Hcp” value was 0.011 and 0.0056. Regarding `Brc1ccc(Oc2cc(Br)c(Br)c(Br)c2Br)cc1` [2,3,4,4',5-pentabromodiphenyl ether], the “Henry solubility constant Hcp” value was 0.62 and 0.77. As for `Clc1ccc(-c2ccccc2Cl)cc1` [2,4'-dichlorobiphenyl], the “Henry solubility constant Hcp” value is 0.026 and 0.019. Regarding `Brc1ccc(Oc2ccc(Br)cc2Br)cc1` [2,4,4'-tribromodiphenyl ether], the “Henry solubility constant Hcp” value is 0.11 and 0.077. Next, `Clc1ccccc1-c1ccccc1` [2-chlorobiphenyl]: 0.03 and 0.023; `Clc1ccc(-c2ccc(Cl)c(Cl)c2)cc1Cl` [3,3',4,4'-tetrachlorobiphenyl]: 0.031 and 0.018; `Brc1ccc(Oc2ccc(Br)cc2)cc1` [4,4'-dibromodiphenyl ether]: 0.083 and 0.071.

Take `Clc1ccc(-c2ccc(Cl)cc2)cc1` [4,4'-dichlorobiphenyl]: the “Henry solubility constant Hcp” value was 0.05 and 0.033.

Turning to `Brc1ccc(Oc2ccccc2)cc1` [4-bromodiphenyl ether], the “Henry solubility constant Hcp” value is 0.05 and 0.043.
